Measured values: article PMC6931042 (Bioorganic chemistry, 2018)

Experiments:
[1] = test system: RPMI-8226; assay: NCI in vitro five dose anticancer assay; type: cell-based, human; details: Leukemia, five dose assay
[2] = test system: p53, p21, cyclin B1 and Cdc2 in A549 cells; assay: Western blotting, p53 and cell cycle regulators; type: cell-based, human; details: 1, 3 and 6 μM, western blot
[3] = test system: MCF7; assay: NCI in vitro five dose anticancer assay; type: cell-based, human; details: Breast cancer, five dose assay
[4] = test system: BT-549; assay: NCI in vitro five dose anticancer assay; type: cell-based, human; details: Breast cancer, five dose assay
[5] = test system: OVCAR-5; assay: NCI in vitro five dose anticancer assay; type: cell-based, human; details: Ovarian cancer, five dose assay
[6] = test system: A549 cells; assay: Cell cycle analysis by flow cytometry; type: cell-based, human; details: 24 h
[7] = test system: M14; assay: NCI in vitro five dose anticancer assay; type: cell-based, human; details: Melanoma, five dose assay
[8] = test system: SN12C; assay: NCI in vitro five dose anticancer assay; type: cell-based, human; details: Renal cancer, five dose assay
[9] = test system: DU-145; assay: NCI in vitro five dose anticancer assay; type: cell-based, human; details: Prostate cancer, five dose assay
[10] = biological target: PI3K-δ (Homo sapiens, UniProt O00329); assay: PI3K biochemical assay; details: read-out: IC50 (nM) PI3K-δ; ADP-Glo; ATP 10 μM
[11] = test system: CCRF-CEM; assay: NCI in vitro five dose anticancer assay; type: cell-based, human; details: Leukemia, five dose assay
[12] = test system: A549 cells; assay: Apoptosis, annexin V-FITC/PI flow cytometry; type: cell-based, human; details: for percentage of apoptotic cells: 48 h
[13] = test system: A549/ATCC; assay: NCI in vitro five dose anticancer assay; type: cell-based, human; details: Non-small cell lung cancer; A549/ATCC; five dose assay
[14] = test system: HCC-2998; assay: NCI in vitro five dose anticancer assay; type: cell-based, human; details: Colon cancer; HCC-2998; five dose assay
[15] = test system: SK-MEL-5; assay: NCI in vitro five dose anticancer assay; type: cell-based, human; details: Melanoma, five dose assay
[16] = biological target: PI3K-β (Homo sapiens, UniProt P42338); assay: PI3K biochemical assay; details: read-out: IC50 (nM) PI3K-β; ADP-Glo; ATP 30 μM
[17] = test system: 786–0; assay: NCI in vitro five dose anticancer assay; type: cell-based, human; details: Renal cancer; 786–0; five dose assay
[18] = test system: NCI-H522; assay: NCI in vitro five dose anticancer assay; type: cell-based, human; details: Non-small cell lung cancer, five dose assay
[19] = test system: HT29; assay: NCI in vitro five dose anticancer assay; type: cell-based, human; details: Colon cancer; HT29; five dose assay
[20] = test system: LOX IMVI; assay: NCI in vitro five dose anticancer assay; type: cell-based, human; details: Melanoma, five dose assay
[21] = test system: TK-10; assay: NCI in vitro five dose anticancer assay; type: cell-based, human; details: Renal cancer, five dose assay
[22] = test system: NCI/ADR-RES; assay: NCI in vitro five dose anticancer assay; type: cell-based, human; details: Ovarian cancer, five dose assay
[23] = test system: p53, p21, cyclin B1 and Cdc2 in K-562 cells; assay: Western blotting, p53 and cell cycle regulators; type: cell-based, human; details: 1, 3 and 6 μM, western blot
[24] = test system: SF-268; assay: NCI in vitro five dose anticancer assay; type: cell-based, human; details: CNS cancer, five dose assay
[25] = test system: HL-60(TB); assay: NCI in vitro five dose anticancer assay; type: cell-based, human; details: Leukemia; HL-60(TB); five dose assay
[26] = test system: K-562 cells; assay: Cell cycle analysis by flow cytometry; type: cell-based, human; details: 24 h
[27] = biological target: PI3K-γ (Homo sapiens, UniProt P48736); assay: PI3K biochemical assay; details: read-out: IC50 (nM) PI3K-γ; ADP-Glo; ATP 10 μM
[28] = test system: p-PI3K, p-Akt, p-mTOR and p-GSK-3β in K-562 cells; assay: Western blotting, PI3K/Akt/mTOR pathway; type: cell-based, human; details: 1, 3, or 6 μM, western blot, dose-dependent
[29] = test system: IGROV1; assay: NCI in vitro five dose anticancer assay; type: cell-based, human; details: Ovarian cancer; IGROV1; five dose assay
[30] = test system: NCI-H226; assay: NCI in vitro five dose anticancer assay; type: cell-based, human; details: Non-small cell lung cancer, five dose assay
[31] = test system: p-PI3K, p-Akt, p-mTOR and p-GSK-3β in A549 cells; assay: Western blotting, PI3K/Akt/mTOR pathway; type: cell-based, human; details: 1, 3, or 6 μM, western blot, dose-dependent
[32] = test system: OVCAR-3; assay: NCI in vitro five dose anticancer assay; type: cell-based, human; details: Ovarian cancer, five dose assay
[33] = test system: T-47D; assay: NCI in vitro five dose anticancer assay; type: cell-based, human; details: Breast cancer; T-47D; five dose assay

Sequence of PI3K-γ (P48736 whole entry): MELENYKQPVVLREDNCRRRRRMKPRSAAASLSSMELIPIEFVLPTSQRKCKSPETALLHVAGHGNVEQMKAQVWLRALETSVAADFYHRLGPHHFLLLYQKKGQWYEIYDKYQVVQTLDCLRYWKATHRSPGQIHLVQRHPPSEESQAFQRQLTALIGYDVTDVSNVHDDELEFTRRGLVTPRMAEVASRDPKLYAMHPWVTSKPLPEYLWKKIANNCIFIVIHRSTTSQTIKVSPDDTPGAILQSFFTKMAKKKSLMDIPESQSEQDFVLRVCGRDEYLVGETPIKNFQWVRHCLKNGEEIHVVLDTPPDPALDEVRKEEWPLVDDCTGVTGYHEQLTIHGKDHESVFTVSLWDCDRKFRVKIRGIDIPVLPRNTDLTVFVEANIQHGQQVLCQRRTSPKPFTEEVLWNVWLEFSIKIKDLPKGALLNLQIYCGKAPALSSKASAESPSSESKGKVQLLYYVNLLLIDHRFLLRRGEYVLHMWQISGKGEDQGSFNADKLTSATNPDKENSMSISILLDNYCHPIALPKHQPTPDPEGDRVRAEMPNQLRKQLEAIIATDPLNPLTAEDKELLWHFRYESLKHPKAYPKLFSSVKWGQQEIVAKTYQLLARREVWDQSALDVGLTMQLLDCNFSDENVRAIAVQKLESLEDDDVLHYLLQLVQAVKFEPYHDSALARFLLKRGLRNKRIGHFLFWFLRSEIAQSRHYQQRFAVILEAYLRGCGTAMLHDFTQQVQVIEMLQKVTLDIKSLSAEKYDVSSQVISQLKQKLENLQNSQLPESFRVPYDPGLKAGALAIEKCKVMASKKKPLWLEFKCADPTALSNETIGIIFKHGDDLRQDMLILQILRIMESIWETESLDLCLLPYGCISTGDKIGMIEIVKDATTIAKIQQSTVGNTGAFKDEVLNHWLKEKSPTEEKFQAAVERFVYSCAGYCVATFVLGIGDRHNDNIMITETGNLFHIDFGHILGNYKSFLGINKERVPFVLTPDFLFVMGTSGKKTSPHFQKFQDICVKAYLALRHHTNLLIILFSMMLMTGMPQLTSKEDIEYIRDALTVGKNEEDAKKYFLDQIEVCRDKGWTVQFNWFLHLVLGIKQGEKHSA
Sequence of PI3K-δ (O00329 whole entry): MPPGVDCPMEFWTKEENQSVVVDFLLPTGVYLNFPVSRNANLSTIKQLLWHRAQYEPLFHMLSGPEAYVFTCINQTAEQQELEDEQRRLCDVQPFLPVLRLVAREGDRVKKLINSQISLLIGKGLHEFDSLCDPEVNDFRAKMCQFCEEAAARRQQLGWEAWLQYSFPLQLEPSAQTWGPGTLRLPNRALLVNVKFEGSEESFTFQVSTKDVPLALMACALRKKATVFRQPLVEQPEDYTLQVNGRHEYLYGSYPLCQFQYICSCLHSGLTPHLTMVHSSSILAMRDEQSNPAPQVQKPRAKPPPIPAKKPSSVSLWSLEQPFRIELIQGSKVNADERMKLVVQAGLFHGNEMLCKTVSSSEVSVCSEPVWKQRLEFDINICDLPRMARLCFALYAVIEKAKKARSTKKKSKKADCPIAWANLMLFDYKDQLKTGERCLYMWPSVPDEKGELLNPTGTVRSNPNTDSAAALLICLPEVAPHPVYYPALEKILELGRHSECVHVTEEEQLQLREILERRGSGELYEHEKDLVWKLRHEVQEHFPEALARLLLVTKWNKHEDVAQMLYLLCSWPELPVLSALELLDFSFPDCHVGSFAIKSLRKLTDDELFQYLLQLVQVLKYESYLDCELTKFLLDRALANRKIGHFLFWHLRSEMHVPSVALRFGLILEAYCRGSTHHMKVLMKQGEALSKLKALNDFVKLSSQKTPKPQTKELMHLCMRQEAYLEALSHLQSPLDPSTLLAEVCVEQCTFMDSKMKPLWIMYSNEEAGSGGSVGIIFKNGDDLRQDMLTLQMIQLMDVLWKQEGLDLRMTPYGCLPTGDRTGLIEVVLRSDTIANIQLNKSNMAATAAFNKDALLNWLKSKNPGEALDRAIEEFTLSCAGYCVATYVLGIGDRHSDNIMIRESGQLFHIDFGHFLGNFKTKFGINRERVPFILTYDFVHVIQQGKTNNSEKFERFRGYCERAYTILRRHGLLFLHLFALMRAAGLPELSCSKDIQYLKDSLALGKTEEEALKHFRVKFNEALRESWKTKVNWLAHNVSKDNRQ
Sequence of PI3K-δ (P27986 whole entry partner): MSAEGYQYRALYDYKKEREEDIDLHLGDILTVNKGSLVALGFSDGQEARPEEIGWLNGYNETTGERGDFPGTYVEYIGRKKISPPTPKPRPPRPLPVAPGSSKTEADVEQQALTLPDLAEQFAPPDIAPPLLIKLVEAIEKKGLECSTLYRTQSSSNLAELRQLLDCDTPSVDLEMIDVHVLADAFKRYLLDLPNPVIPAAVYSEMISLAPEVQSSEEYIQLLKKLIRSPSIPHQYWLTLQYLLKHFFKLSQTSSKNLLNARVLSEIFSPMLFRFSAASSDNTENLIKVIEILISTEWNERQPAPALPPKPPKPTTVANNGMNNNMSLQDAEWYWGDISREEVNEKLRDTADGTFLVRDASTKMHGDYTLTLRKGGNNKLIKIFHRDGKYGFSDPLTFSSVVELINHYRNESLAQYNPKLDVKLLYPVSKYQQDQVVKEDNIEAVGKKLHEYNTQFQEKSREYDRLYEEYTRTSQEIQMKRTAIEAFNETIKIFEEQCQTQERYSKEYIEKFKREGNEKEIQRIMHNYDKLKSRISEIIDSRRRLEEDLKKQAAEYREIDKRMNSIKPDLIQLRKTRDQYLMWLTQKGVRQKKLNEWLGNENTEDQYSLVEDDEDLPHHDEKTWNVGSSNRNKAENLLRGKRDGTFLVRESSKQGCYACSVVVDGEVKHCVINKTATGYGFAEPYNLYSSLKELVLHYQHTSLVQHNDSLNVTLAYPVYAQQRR
Sequence of PI3K-β (P42338 whole entry): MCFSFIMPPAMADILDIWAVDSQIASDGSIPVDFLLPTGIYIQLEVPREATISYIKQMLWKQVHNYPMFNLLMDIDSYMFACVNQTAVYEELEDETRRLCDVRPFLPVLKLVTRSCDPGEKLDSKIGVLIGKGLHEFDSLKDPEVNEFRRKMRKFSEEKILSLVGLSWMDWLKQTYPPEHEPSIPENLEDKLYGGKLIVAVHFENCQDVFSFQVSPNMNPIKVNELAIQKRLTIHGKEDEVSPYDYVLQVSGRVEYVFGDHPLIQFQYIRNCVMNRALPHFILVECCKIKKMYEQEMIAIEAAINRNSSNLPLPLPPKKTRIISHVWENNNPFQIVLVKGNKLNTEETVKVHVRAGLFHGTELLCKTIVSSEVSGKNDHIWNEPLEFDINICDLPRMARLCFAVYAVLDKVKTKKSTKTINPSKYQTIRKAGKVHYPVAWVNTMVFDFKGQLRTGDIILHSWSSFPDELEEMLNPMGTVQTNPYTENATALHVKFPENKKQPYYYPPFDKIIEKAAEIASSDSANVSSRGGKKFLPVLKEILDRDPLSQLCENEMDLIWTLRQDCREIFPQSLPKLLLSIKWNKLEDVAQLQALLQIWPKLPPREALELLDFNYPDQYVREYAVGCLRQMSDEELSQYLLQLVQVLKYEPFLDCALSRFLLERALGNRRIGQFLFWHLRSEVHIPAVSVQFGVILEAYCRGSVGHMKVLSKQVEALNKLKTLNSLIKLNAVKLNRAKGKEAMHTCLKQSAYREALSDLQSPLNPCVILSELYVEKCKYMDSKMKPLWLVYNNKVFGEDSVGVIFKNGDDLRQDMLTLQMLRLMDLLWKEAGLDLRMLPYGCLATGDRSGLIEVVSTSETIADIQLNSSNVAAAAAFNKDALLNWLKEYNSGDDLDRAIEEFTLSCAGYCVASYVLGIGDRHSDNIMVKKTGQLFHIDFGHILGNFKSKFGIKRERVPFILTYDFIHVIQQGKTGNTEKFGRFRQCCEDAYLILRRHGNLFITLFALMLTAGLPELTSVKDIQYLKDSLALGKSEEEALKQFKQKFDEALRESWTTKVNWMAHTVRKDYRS
Sequence of PI3K-β (P27986 whole entry partner): as the sequence (P27986 whole entry partner) above

Q: With `COc1ccc(-c2cc(C(=O)NN=C(/C=C\c3ccc(Cl)cc3)c3ccc(N)cc3)c3ccccc3n2)cc1` [Compound 9i, N’-((Z)-1-(4-Aminophenyl)-3-(4-chlorophenyl)allylidene)-2-(4-methoxphenyl)quinoline-4-carbohydrazide] as the compound, how does the GI50 [1] read?
A: The GI50 was 3.86 µM.

Q: And the “expression of wild type p53” value [2]?
A: The value was “upregulated”.

Q: What about the “expression of Cdc2” value ([2]; dose dependent) of the same compound?
A: The value was “attenuated”.

Q: What about the “expression of cyclin B1” value ([2]; dose dependent) of the same compound?
A: Its value is “attenuated”.

Q: And the “expression of p21” value ([2]; dose dependent)?
A: The value was “significantly induced”.

Q: What about the GI50 [3] of the same compound?
A: Its GI50 is 0.442 µM.

Q: What about the GI50 [4] of the same compound?
A: The GI50 was 2.04 µM.

Q: And the GI50 [5]?
A: Its GI50 is 5.51 µM.

Q: And the “percentage of cells in the G2/M phase” value ([6]; 1 μM)?
A: Its value is 11%.

Q: What about the “percentage of cells in the G2/M phase” value ([6]; 3 μM) of the same compound?
A: The value was 61.2%.

Q: What about the “percentage of cells in the G2/M phase” value ([6]; 6 μM) of the same compound?
A: Its value is 76.2%.

Q: What about the GI50 [7] of the same compound?
A: The GI50 was 1.16 µM.

Q: What about the GI50 [8] of the same compound?
A: The GI50 was 4.27 µM.

Q: What about the GI50 [9] of the same compound?
A: The GI50 was 3.16 µM.

Q: What about the IC50 [10] of the same compound?
A: The IC50 was 438 nM.

Q: And the GI50 [11]?
A: The GI50 was 5.84 µM.

Q: What about the “percentage of apoptotic cells” value ([12]; 1 μM) of the same compound?
A: The value was 13.21%.

Q: What about the “percentage of apoptotic cells” value ([12]; 3 μM) of the same compound?
A: Its value is 22.73%.

Q: What about the “percentage of apoptotic cells” value ([12]; 6 μM) of the same compound?
A: The value was 35.9%.

Q: What about the “proportion of apoptotic cells compared to control” value ([12]; 1, 3, or 6 μM, 24 h, data not shown) of the same compound?
A: Its value is “did not result in changes”.

Q: And the GI50 [13]?
A: Its GI50 is 2.33 µM.

Q: What about the GI50 [14] of the same compound?
A: Its GI50 is 3.4 µM.

Q: And the GI50 [15]?
A: Its GI50 is 0.701 µM.

Q: What about the IC50 [16] of the same compound?
A: Its IC50 is 296 nM.

Q: And the GI50 [17]?
A: Its GI50 is 1.84 µM.

Q: What about the GI50 [18] of the same compound?
A: Its GI50 is 0.307 µM.

Q: And the GI50 [19]?
A: The GI50 was 1.13 µM.

Q: What about the GI50 [20] of the same compound?
A: Its GI50 is 1.56 µM.

Q: And the GI50 [21]?
A: The GI50 was 52.3 µM.

Q: And the GI50 [22]?
A: Its GI50 is 0.519 µM.

Q: And the “expression of non-functional p53” value [23]?
A: Its value is “no effect”.

Q: What about the “expression of Cdc2” value ([23]; dose dependent) of the same compound?
A: The value was “attenuated”.

Q: And the “expression of cyclin B1” value ([23]; dose dependent)?
A: The value was “attenuated”.

Q: What about the “expression of p21” value ([23]; dose dependent) of the same compound?
A: The value was “significantly induced”.

Q: And the GI50 [24]?
A: The GI50 was 2.19 µM.

Q: And the GI50 [25]?
A: The GI50 was 2.54 µM.

Q: And the “percentage of cells in the G2/M phase” value ([26]; 1 μM)?
A: Its value is 2.95%.

Q: And the “percentage of cells in the G2/M phase” value ([26]; 3 μM)?
A: Its value is 30.7%.

Q: And the “percentage of cells in the G2/M phase” value ([26]; 6 μM)?
A: The value was 49.3%.

Q: And the IC50 [27]?
A: The IC50 was 52 nM.

Q: And the “levels of phosphorylated Akt (at Ser473)” value [28]?
A: Its value is “decreases”.

Q: What about the “levels of phosphorylated GSK-3β” value [28] of the same compound?
A: The value was “decreases”.

Q: What about the “levels of phosphorylated PI3K (at Tyr458)” value [28] of the same compound?
A: The value was “decreases”.

Q: What about the “levels of phosphorylated mTOR (at Ser2448)” value [28] of the same compound?
A: Its value is “decreases”.

Q: What about the GI50 [29] of the same compound?
A: Its GI50 is 4.98 µM.

Q: What about the GI50 [30] of the same compound?
A: The GI50 was 7.54 µM.

Q: And the “levels of phosphorylated Akt (at Ser473)” value [31]?
A: The value was “decreases”.

Q: What about the “levels of phosphorylated GSK-3β” value [31] of the same compound?
A: Its value is “decreases”.

Q: What about the “levels of phosphorylated PI3K (at Tyr458)” value [31] of the same compound?
A: Its value is “decreases”.

Q: And the “levels of phosphorylated mTOR (at Ser2448)” value [31]?
A: Its value is “decreases”.

Q: What about the GI50 [32] of the same compound?
A: Its GI50 is 0.462 µM.

Q: What about the GI50 [33] of the same compound?
A: The GI50 was 2.7 µM.
